Data set [1] can be described thus: Mouse in vivo pharmacokinetic studies. Also on record: species or system C57BL/6 male mice. To be noted: for bioavailability / AUC / Cmax / Tmax / clearance / half-life: male; for bioavailability: C57BL/6, mouse, plasma, oral, read-out: %F (oral bioavailability); for AUC / Cmax / Tmax / clearance / half-life: C57BL/6, plasma. As to the method:
Adult C57BL/6 male mice (2–4 mo old, body weight ranging from 20 to 25 g, Charles River Laboratories) were maintained under controlled temperature (23 ± 1°C) and lighting (lights on 6:00 AM–6:00 PM) with food and water provided ad libitum. Pharmacokinetic studies were performed either via intravenous bolus infusion or through oral gavage. Mice were administered each compound intravenously by tail vein injection (1 mg/kg) or orally through gavage (5 mg/kg). Serial blood samples were collected at 5, 15, and 30 min and 1, 2, 4, 8, and 24 h after intravenous administration, and at 15, 30 min, and 1, 2, 4, 8, and 24 h after oral gavage administration. All blood samples were centrifuged at 1,500 g for 5 min. Pharmacokinetic study procedures were approved by Temple University’s Institutional Animal Care and Usage Committee and were in accordance with National Institutes of Health (NIH) guidelines. For all in vivo efficacy studies, experiments were approved by the animal ethics committee of McMaster University and conducted under Canadian guidelines for animal research.
Plasma concentrations were determined using an LC-MS/MS method. Briefly, 100-µL acetonitrile with an internal standard solution (Diltiazem, 0.1 μg/mL) was added to 50-µL plasma or tissue homogenate. After being vortexed for 1 min, the mixture was centrifuged at 3,000 g for 5 min. LC-MS/MS analysis was carried out using a high-performance liquid chromatography system consisting of an Agilent 1100 system interfaced to an API4000 SCIEX triple-quadrupole tandem mass spectrometer (Applied Biosystems/MDS Sciex, Foster City, CA). MC-170073, MC-230078, MC-230079, and the internal standard were separated by using a Phenomenex (Torrance, CA) C18 column (2.0 × 50 mm). The mobile phase consisted of solvent A (0.1% formic acid in water) and solvent B (0.1% formic acid in acetonitrile). A linear gradient of solvent B from 5 to 95% was used. The detection and quantification of analytes were performed with the m/z transition 347/191 for MC-170073, MC-230078, and MC-230079, and m/z 415/178 for diltiazem.

For data set [2], the target named is T1, h5-HT7D expressed in U2OS cells (Homo sapiens, UniProt P34969).
T1 construct: host or cells: U2OS
T1 sequence (P34969 whole entry): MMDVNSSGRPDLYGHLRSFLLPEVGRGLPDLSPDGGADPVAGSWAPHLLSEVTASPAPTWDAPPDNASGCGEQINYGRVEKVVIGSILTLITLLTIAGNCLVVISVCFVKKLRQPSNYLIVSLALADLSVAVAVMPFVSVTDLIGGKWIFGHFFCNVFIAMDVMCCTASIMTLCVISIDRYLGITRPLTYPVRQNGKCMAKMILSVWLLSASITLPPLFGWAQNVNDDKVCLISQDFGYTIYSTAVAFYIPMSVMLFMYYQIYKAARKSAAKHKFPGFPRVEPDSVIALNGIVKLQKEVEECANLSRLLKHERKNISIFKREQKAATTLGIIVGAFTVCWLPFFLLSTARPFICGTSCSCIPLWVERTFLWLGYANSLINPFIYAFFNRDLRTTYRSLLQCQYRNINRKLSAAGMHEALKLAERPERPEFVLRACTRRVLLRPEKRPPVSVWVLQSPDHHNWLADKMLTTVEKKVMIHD
Description: 5-HT7 functional assay (cAMP Hunter eXpress GPCR luminescence assay). It counts as cell-based. Particulars: antagonist, cAMP production stimulated by 150 nM 5-HT (EC80), Cheng-Prusoff. As to the method: The potencies of MC-170073, […], and MC-230079 as 5-HT7 antagonists were determined using the cAMP Hunter eXpress GPCR luminescence assay (DiscoveRx, 95-0163E3) and the manufacturer’s protocol. Cryopreserved U2OS cells expressing h5-HT7D were seeded into 96-well white-walled clear bottom tissue culture-treated plates (31,250 cells/well) and were allowed to recover for 16 h at 37°C in a humidified incubator with 5% CO2. The media was aspirated and replaced with 30-µL cell assay buffer (CAB). Cells were preincubated at 37°C for 15 min with 7.5 µL of 6× final concentration of 5 to 10 concentrations in triplicate of test compounds in CAB. Cells were then stimulated for 30 min at 37°C with 7.5 µL of 900 nM of the full agonist 5-HT in cell assay buffer (final concentration 150 nM; an EC80). cAMP levels/well were determined at room temperature by adding 15 µL of cAMP antibody and 60 µL of cAMP working detection solution, followed by the addition of 60 µL of solution A after 1 h incubation. Luminescence was read 16 h later with an EnVision multilabel plate reader. The IC50 of test compounds was calculated using GraphPad’s Prism 5 (GraphPad Software, La Jolla, CA) nonlinear curve-fitting program. The equilibrium dissociation constant for the competitive antagonists (KB) values was determined using the Cheng-Prusoff equation.
On the technique in general: Changes in cAMP serve as a functional read-out for many G protein-coupled receptors.

In data set [3] the target is 5-HT1A, 5-HT1B, 5-HT1D, 5-HT1E, 5-HT2A, 5-HT2B, 5-HT2C, 5-HT3, 5-HT4, 5-HT5A, and 5-HT6. Description: Off-target assessment at other 5-HT receptors (PDSP). The data set is classed as binding. To be noted: 1B, 1D, 1E, 2A, 2B, 2C, 3, 4, 5A, 6. As to the method: In vitro assessments of MC-170073, MC-20078, and MC-230079 activity at the following targets were determined using the assay systems available through the Psychoactive Drug Screening Program (PDSP). Detailed protocols for each assay are available at https://pdsp.unc.edu/pdspweb/?site=assays. Receptors 5-HT1A, 5-HT1B, 5-HT1D, 5-HT1E, 5-HT2A, 5-HT2B, 5-HT2C, 5-HT3, 5-HT5A, 5-HT6, 5-HT7, α1A, α1B, α1D, α2A, α2B, α2C, benzodiazepine, β1, β2, β3, GABA-A, H1, H2, H3, H4, M1, M2, M3, M4, M5, δ-opioid, κ-opioid, and µ-opioid and transporters dopamine, norepinephrine, and serotonin were evaluated.

A short description of data set [4]: Administration of antagonist in the absence of DSS. The data set is classed as in vivo, mice. Particulars: Supplemental Fig. S2.
In data set [5] the target is human cytochrome P450 3A4 (Homo sapiens, UniProt P08684). The data set can be described thus: Cytochrome P450 inhibition assay, 3A4 (testosterone substrate, LC-MS/MS). The data set is classed as in vitro ADME. Particulars: expressed enzyme, read-out: IC50 CYP3A4. As to the method: Compounds were assessed for their ability to inhibit human cytochrome P450 3A4 using testosterone as a substrate and LC-MS/MS analysis, whereas the 2D6 and 2C9 assays used fluorescent substrates and EnVision plate reader analysis. Expressed enzymes were used to minimize nonspecific binding and membrane partitioning issues ([15]).
Sequence of human cytochrome P450 3A4 (P08684 whole entry): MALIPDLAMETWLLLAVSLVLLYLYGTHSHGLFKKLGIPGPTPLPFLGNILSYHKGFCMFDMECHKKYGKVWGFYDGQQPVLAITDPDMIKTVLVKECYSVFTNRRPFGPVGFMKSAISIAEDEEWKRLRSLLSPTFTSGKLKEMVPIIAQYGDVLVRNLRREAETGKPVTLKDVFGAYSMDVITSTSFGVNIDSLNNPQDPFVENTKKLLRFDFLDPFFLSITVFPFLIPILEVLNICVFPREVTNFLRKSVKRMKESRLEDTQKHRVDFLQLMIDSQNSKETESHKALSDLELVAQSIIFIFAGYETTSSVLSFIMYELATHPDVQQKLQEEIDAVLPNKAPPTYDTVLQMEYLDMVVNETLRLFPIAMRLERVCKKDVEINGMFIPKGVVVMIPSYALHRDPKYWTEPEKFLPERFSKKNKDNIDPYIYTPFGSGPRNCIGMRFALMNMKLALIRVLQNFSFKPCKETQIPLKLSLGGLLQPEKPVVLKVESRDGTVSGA

Setting [6] is: 5 mg/kg, 5 mg/kg oral vs 1 mg/kg IV.

pIC50, pKi: −log10 of the molar value.

For `CCC1(CC)C[C@@H](CCN2CCN(c3ccc(O)cc3)CC2)OC1=O` [MC-230078], in data set [1] (setting [6]), the bioavailability (usually the share of a dose that reaches the circulation, judged against a reference dose that is usually intravenous) came to 13.7%. In data set [1] (IV, 1 mg/kg), the AUC (as a rule, concentration integrated over time) was found to be 277 ng·h/mL; the Cmax (in general, the peak of the concentration-time curve) stood at 527 ng/mL; the Tmax (commonly the time at which the peak concentration occurs) came to 0.083 h; the clearance – broadly, a measure of how efficiently the substance is removed, as volume per time – was 1.4 mL/min. In addition, the half-life (as a rule, how long it takes for the measured level to halve) in data set [1] (IV, 1 mg/kg) was 3.97 h. In addition, in data set [1] (oral gavage, 5 mg/kg), the AUC stood at 190 ng·h/mL, the Cmax turned out to be 123 ng/mL, the time to peak (Tmax) stood at 0.5 h and the half-life was 3.78 h. In data set [1] (oral gavage, 5 mg/kg), this compound gave a CL of 0.511 L/h. In addition, the antagonist dissociation constant (Kb) (in general, the affinity of an antagonist, worked out from how it opposes an agonist) in data set [2] is 0.021 µM. The pKi (usually the negative decadic logarithm of the Ki, by convention in mol/L) in data set [3] is less than 5.00. Besides, the “effect on body weight change, histology, or proinflammatory cytokine production” value in data set [4] is on record as “no significant effect”. Also, the pIC50 (commonly −log10 of the IC50, conventionally taken in molar units) in data set [5] is 5.02.

`CCC1(CC)CC(CCN2CCN(c3ccc(O)cc3)CC2)OC1=O` (stereo not shown) [MC-170073]: the “%F (oral bioavailability)” value in data set [1] (5 mg/kg oral vs 1 mg/kg IV) was 17.5%. Further, the bioavailability in data set [1] (setting [6]) was 17%. Further, in data set [1] (IV, 1 mg/kg), the exposure (AUC) is 142 ng·h/mL, the Cmax was 81 ng/mL, the Tmax amounted to 0.25 h and the clearance is 2.08 mL/min. The compound further gave a half-life in data set [1] (IV, 1 mg/kg) of 4.4 h. In data set [1] (oral gavage, 5 mg/kg), the AUC was 124 ng·h/mL, the concentration peaked (Cmax) at 49 ng/mL, the Tmax is 0.25 h and the half-life was 3.4 h. In addition, the CL in data set [1] (oral gavage, 5 mg/kg) was determined as 0.73 L/h. The Kb in data set [2] was found to be 0.018 µM. In data set [3], this compound showed a pKi of less than 5.00. Moreover, in data set [4], the “effect on body weight change, histology, or proinflammatory cytokine production” value is on record as “no significant effect”. Moreover, the pIC50 in data set [5] is less than 5.00.

The record behind these values is PMC11550998, “Novel 5-HT7 receptor antagonists modulate intestinal immune responses and reduce severity of colitis” (American Journal of Physiology - Gastrointestinal and Liver …, 2024).
